Where “and” joins values, the source holds several entries; their conditions need not be identical. Identical values can stand only once. Toxic doses and inconclusive results are not listed. No stated cut-off is given here; in the data, active means T/C of 150% or more; inactive means T/C below 125%.
Test system: L1210 leukemia ip in BDF1 mice, survival T/C
Assay: NCI In Vivo Anticancer Drug Screen. Data for tumor model L1210 Leukemia (intraperitoneal) in B6D2F1 (BDF1) mice
Conditions: endpoint: mean survival time, higher = longer survival
Summary of the method: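 Value reflects the ratio of survival in compound-treated mice to survival in vehicle-treated controls, with both groups carrying the same transplanted tumor.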

[1] = dose: 25.0 mg/kg/injection, schedule: Q04DX003 (ip), vehicle: Klucel (hydroxypropylcellulose) (HPC)
[2] = dose: 50.0 mg/kg/injection, schedule: Q01DX009 (ip), vehicle: Klucel (hydroxypropylcellulose) (HPC)
[3] = dose: 50.0 mg/kg/injection, schedule: Q04DX003 (ip), vehicle: Klucel (hydroxypropylcellulose) (HPC)
[4] = dose: 100.0 mg/kg/injection, schedule: Q04DX003 (ip), vehicle: saline with Tween-80
[5] = dose: 200.0 mg/kg/injection, schedule: Q04DX003 (ip), vehicle: saline with Tween-80
[6] = dose: 400.0 mg/kg/injection, schedule: Q04DX003 (ip), vehicle: saline with Tween-80
[7] = dose: 25.0 mg/kg/injection, schedule: Q01DX009 (ip), vehicle: saline with Tween-80
[8] = dose: 50.0 mg/kg/injection, schedule: Q01DX009 (ip), vehicle: saline with Tween-80
[9] = dose: 100.0 mg/kg/injection, schedule: Q01DX009 (ip), vehicle: saline with Tween-80
[10] = dose: 200.0 mg/kg/injection, schedule: Q01DX009 (ip), vehicle: saline with Tween-80
[11] = dose: 100.0 mg/kg/injection, schedule: Q04DX002 (ip), vehicle: saline
[12] = dose: 200.0 mg/kg/injection, schedule: Q04DX002 (ip), vehicle: saline
[13] = dose: 400.0 mg/kg/injection, schedule: Q04DX002 (ip), vehicle: saline
[14] = dose: 100.0 mg/kg/injection, schedule: Q01DX001 (ip), vehicle: Klucel (hydroxypropylcellulose) (HPC)
[15] = dose: 200.0 mg/kg/injection, schedule: Q01DX001 (ip), vehicle: Klucel (hydroxypropylcellulose) (HPC)
[16] = dose: 400.0 mg/kg/injection, schedule: Q01DX001 (ip), vehicle: Klucel (hydroxypropylcellulose) (HPC)
[17] = dose: 100.0 mg/kg/injection, schedule: Q04DX003 (ip), vehicle: Klucel (hydroxypropylcellulose) (HPC)
[18] = dose: 200.0 mg/kg/injection, schedule: Q04DX003 (ip), vehicle: Klucel (hydroxypropylcellulose) (HPC)
[19] = dose: 400.0 mg/kg/injection, schedule: Q04DX003 (ip), vehicle: Klucel (hydroxypropylcellulose) (HPC)
[20] = dose: 100.0 mg/kg/injection, schedule: Q01DX001 (ip), vehicle: saline
[21] = dose: 200.0 mg/kg/injection, schedule: Q01DX001 (ip), vehicle: saline
[22] = dose: 400.0 mg/kg/injection, schedule: Q01DX001 (ip), vehicle: saline
[23] = dose: 100.0 mg/kg/injection, schedule: Q04DX003 (ip), vehicle: saline
[24] = dose: 200.0 mg/kg/injection, schedule: Q04DX003 (ip), vehicle: saline
[25] = dose: 100.0 mg/kg/injection, schedule: Q01DX009 (ip), vehicle: Klucel (hydroxypropylcellulose) (HPC)
[26] = dose: 200.0 mg/kg/injection, schedule: Q01DX009 (ip), vehicle: Klucel (hydroxypropylcellulose) (HPC)
[27] = dose: 400.0 mg/kg/injection, schedule: Q01DX009 (ip), vehicle: Klucel (hydroxypropylcellulose) (HPC)

Measured: T/C

C=C=[CH][Sn]([c]1ccccc1)([c]1ccccc1)[c]1ccccc1
inactive: dose: 12.5 mg/kg/injection, schedule: Q01DX009 (ip), vehicle: Klucel (hydroxypropylcellulose) (HPC) 100 % of control | dose: 12.5 mg/kg/injection, schedule: Q04DX003 (ip), vehicle: Klucel (hydroxypropylcellulose) (HPC) 99 % of control | dose: 25.0 mg/kg/injection, schedule: Q01DX009 (ip), vehicle: Klucel (hydroxypropylcellulose) (HPC) 102 % of control | [1] 106 % of control | [2] 89 % of control | [3] 99 % of control

CC(C)CCCC(C)C1CCC2C3CC=C4CC(C(=O)NN)CCC4(C)C3CCC12C (centres undefined)
inactive: [4] 96 % of control | [5] 96 % of control | [6] 98 % of control

CSC(=N)c1cccc(OCCCc2ccccc2)c1
inactive: [7] 92 % of control | [8] 92 % of control | [9] 101 % of control | [10] 93 % of control

COc1cc2cc3c4cc(OC)c(OC)cc4cc[n+]3c(/C=C\c3ccccc3O)c2cc1OC
inactive: dose: 50.0 mg/kg/injection, schedule: Q01DX001 (ip), vehicle: carboxymethylcellulose (CMC) 106 % of control | dose: 100.0 mg/kg/injection, schedule: Q01DX001 (ip), vehicle: carboxymethylcellulose (CMC) 114 % of control | dose: 100.0 mg/kg/injection, schedule: Q04DX002 (ip), vehicle: carboxymethylcellulose (CMC) 100 % of control and 104 % of control | dose: 100.0 mg/kg/injection, schedule: Q04DX003 (ip), vehicle: carboxymethylcellulose (CMC) 109 % of control and 118 % of control | dose: 200.0 mg/kg/injection, schedule: Q01DX001 (ip), vehicle: carboxymethylcellulose (CMC) 119 % of control | dose: 200.0 mg/kg/injection, schedule: Q04DX002 (ip), vehicle: carboxymethylcellulose (CMC) 100 % of control and 103 % of control | dose: 200.0 mg/kg/injection, schedule: Q04DX003 (ip), vehicle: carboxymethylcellulose (CMC) 110 % of control and 123 % of control | dose: 400.0 mg/kg/injection, schedule: Q01DX001 (ip), vehicle: carboxymethylcellulose (CMC) 116 % of control | dose: 400.0 mg/kg/injection, schedule: Q04DX002 (ip), vehicle: carboxymethylcellulose (CMC) 97 % of control and 104 % of control | dose: 400.0 mg/kg/injection, schedule: Q04DX003 (ip), vehicle: carboxymethylcellulose (CMC) 110 % of control and 115 % of control

O=C(O)/C=C/c1cnc[nH]1
inactive: [11] 93 % of control | [12] 104 % of control | [13] 108 % of control

O=[N+]([O-])c1ccc(C(=NO)c2ccc([N+](=O)[O-])cc2)cc1
inactive: [14] 103 % of control | [15] 109 % of control | [16] 101 % of control

CCOC(=O)C(O)C(Cl)(c1ccccc1)C(C)C (centres undefined)
inactive: [11] 100 % of control | [12] 114 % of control | [13] 111 % of control

NNc1ccccc1-c1nc(N)nc(N)n1
inactive: dose: 9.38 mg/kg/injection, schedule: Q01DX001 (ip), vehicle: other 109 % of control | dose: 18.75 mg/kg/injection, schedule: Q01DX001 (ip), vehicle: other 112 % of control | dose: 37.5 mg/kg/injection, schedule: Q01DX001 (ip), vehicle: other 118 % of control

Nc1cc2oc3ccccc3c2c2cccnc12
inactive: [14] 103 % of control | [17] 106 % of control | [15] 100 % of control | [18] 103 % of control | [16] 91 % of control | [19] 103 % of control

Cn1cc(Br)c2ccccc2c1=O
inactive: [1] 87 % of control | [3] 101 % of control | [17] 94 % of control and 124 % of control

CCCCOc1ccc(C(=O)NN)cc1
inactive: [7] 93 % of control | [8] 102 % of control | [9] 88 % of control

CCC1=C(C)C(C)OC(C)=C1C (centres undefined) (tested in a mixture with another compound)
inactive: [20] 93 % of control | [21] 90 % of control | [22] 93 % of control

CCCCOc1c(Cl)c(Cl)c(O)c(Cl)c1Cl
inactive: dose: 50.0 mg/kg/injection, schedule: Q01DX009 (ip), vehicle: acetone 101 % of control | dose: 50.0 mg/kg/injection, schedule: Q04DX003 (ip), vehicle: saline 97 % of control | [20] 93 % of control | dose: 100.0 mg/kg/injection, schedule: Q01DX009 (ip), vehicle: acetone 93 % of control | [23] 94 % of control | [21] 88 % of control | [24] 87 % of control

Cc1noc(NS(=O)(=O)c2ccc(N=Nc3ccc(N)nc3N)cc2)c1C
inactive: [20] 105 % of control | [21] 98 % of control | [22] 100 % of control

c1ccc(C[N+]23CC[N+](Cc4ccccc4)(CC2)CC3)cc1
inactive: dose: 50.0 mg/kg/injection, schedule: Q01DX009 (ip), vehicle: saline 107 % of control | dose: 100.0 mg/kg/injection, schedule: Q01DX009 (ip), vehicle: saline 111 % of control | [23] 97 % of control | dose: 200.0 mg/kg/injection, schedule: Q01DX009 (ip), vehicle: saline 114 % of control | [24] 100 % of control

S=C(NCc1ccco1)Nc1cccc2ccccc12
inactive: dose: 100.0 mg/kg/injection, schedule: Q04DX002 (ip), vehicle: gum acacia 101 % of control | dose: 200.0 mg/kg/injection, schedule: Q04DX002 (ip), vehicle: gum acacia 88 % of control | dose: 400.0 mg/kg/injection, schedule: Q04DX002 (ip), vehicle: gum acacia 98 % of control

Cc1c([N+](=O)[O-])cc(I)cc1[N+](=O)[O-]
inactive: [4] 106 % of control | [5] 108 % of control | [6] 103 % of control

CC1=Nc2cc(C)c(C)cc2N=C(C)C1
inactive: [25] 96 % of control | [17] 93 % of control | [26] 98 % of control | [18] 97 % of control

CCCCC1=C(c2ccccc2)C(=O)OC1=O
inactive: [25] 95 % of control | [17] 88 % of control | [26] 95 % of control | [18] 98 % of control | [27] 100 % of control | [19] 89 % of control

O=C1CCC(N2C(=O)C3C4C=CC(CC4)C3C2=O)C(=O)N1 (centres undefined)
inactive: [23] 97 % of control | [24] 102 % of control | dose: 400.0 mg/kg/injection, schedule: Q04DX003 (ip), vehicle: saline 90 % of control

CCCC(C)(C)C(=O)Nc1cccc(OC(=O)NC(C)(C)C)c1
inactive: [9] 88 % of control | [10] 86 % of control | dose: 400.0 mg/kg/injection, schedule: Q01DX009 (ip), vehicle: saline with Tween-80 89 % of control

O=C(Nc1cccc(F)c1)Nc1cc(Cl)ccc1Cl
inactive: [25] 96 % of control and 86 % of control | [26] 102 % of control | [27] 95 % of control and 92 % of control

O=C(O)c1ccc(CO)o1
inactive: [2] 107 % of control | [25] 93 % of control

O=C(O)C1Cc2ccccc21 (centres undefined)
inactive: dose: 25.0 mg/kg/injection, schedule: Q04DX002 (ip), vehicle: Klucel (hydroxypropylcellulose) (HPC) 96 % of control | dose: 50.0 mg/kg/injection, schedule: Q04DX002 (ip), vehicle: Klucel (hydroxypropylcellulose) (HPC) 96 % of control | dose: 100.0 mg/kg/injection, schedule: Q04DX002 (ip), vehicle: Klucel (hydroxypropylcellulose) (HPC) 92 % of control

S=C=Nc1ccc(Cl)c(Cl)c1
inactive: dose: 12.5 mg/kg/injection, schedule: Q01DX009 (ip), vehicle: saline with Tween-80 104 % of control | [7] 94 % of control | [8] 102 % of control

CCN(CC[n+]1ccccc1)c1ccccc1 (tested in a mixture with another compound)
inactive: dose: 50.0 mg/kg/injection, schedule: Q01DX001 (ip), vehicle: saline 103 % of control

Reference: PubChem BioAssay AID248 (DTP/NCI, 2004)
